Measurements from ChEMBL document CHEMBL3352801, “Synthesis and lipid-lowering evaluation of 3-methyl-1H-purine-2,6-dione derivatives as potent and orally available anti-obesity agents” (Eur J Med Chem, 2014).
Active and inactive are the calls of the source. The rule behind the calls is not given here.

tested on: 3T3-L1; experiment: Inhibition of triglyceride accumulation in mouse 3T3L1 cells at 10 uM after 24 hrs; format: functional; conditions: not given

| Structure (SMILES) | inhibition |
| --- | --- |
| C=CCn1c(-c2ccc(OCCN(C)c3ccccn3)cc2)nc2c1c(=O)n(Cc1ccc(F)cc1)c(=O)n2C | inactive |
| CCCCn1c(-c2ccc(OCCN(C)c3ccccn3)cc2)nc2c1c(=O)n(Cc1ccccc1C#N)c(=O)n2C | Active |
| CN(CCOc1ccc(-c2nc3c(c(=O)n(Cc4ccccc4C#N)c(=O)n3C)n2CCCC(=O)O)cc1)c1ccccn1 | inactive |
| CN(CCOc1ccc(-c2nc3c(c(=O)n(CC(=O)O)c(=O)n3C)n2CC(=O)O)cc1)c1ccccn1 | Active |
| CN(CCOc1ccc(-c2nc3c(c(=O)n(Cc4ccccc4C#N)c(=O)n3C)n2C)cc1)c1ccccn1 | inactive |
| C=CCn1c(-c2ccc(OCCN(C)c3ccccn3)cc2)nc2c1c(=O)n(Cc1ccccc1C#N)c(=O)n2C | inactive |
| CCOC(=O)Cn1c(=O)c2c(nc(-c3ccc(OCCN(C)c4ccccn4)cc3)n2COC(=O)C(C)(C)C)n(C)c1=O | inactive |
| CN(CCOc1ccc(-c2nc3c(c(=O)n(Cc4ccccc4C#N)c(=O)n3C)n2CC(=O)O)cc1)c1ccccn1 | inactive |
| CCOC(=O)CCCn1c(-c2ccc(OCCN(C)c3ccccn3)cc2)nc2c1c(=O)n(Cc1ccccc1C#N)c(=O)n2C | inactive |
| COc1ccc(Cn2c(=O)c3[nH]c(-c4ccc(OCCN(C)c5ccccn5)cc4)nc3n(C)c2=O)cc1 | inactive |
| CCn1c(-c2ccc(OCCN(C)c3ccccn3)cc2)nc2c1c(=O)n(Cc1ccc(OC)cc1)c(=O)n2C | inactive |
| C=CCn1c(-c2ccc(OCCN(C)c3ccccn3)cc2)nc2c1c(=O)n(Cc1ccc(OC)cc1)c(=O)n2C | inactive |
| CC(C)Cn1c(-c2ccc(OCCN(C)c3ccccn3)cc2)nc2c1c(=O)n(Cc1ccccc1C#N)c(=O)n2C | inactive |
| CCOC(=O)CCCn1c(=O)c2c(nc(-c3ccc(OCCN(C)c4ccccn4)cc3)n2COC(=O)C(C)(C)C)n(C)c1=O | inactive |
| CN(CCOc1ccc(-c2nc3c([nH]2)c(=O)n(CCCC(=O)O)c(=O)n3C)cc1)c1ccccn1 | inactive |
| CCCn1c(=O)c2c(nc(-c3ccc(OCCN(C)c4ccccn4)cc3)n2CC)n(C)c1=O | inactive |
| CCOC(=O)Cn1c(-c2ccc(OCCN(C)c3ccccn3)cc2)nc2c1c(=O)n(Cc1ccccc1C#N)c(=O)n2C | inactive |
| CCCn1c(=O)c2[nH]c(-c3ccc(OCCN(C)c4ccccn4)cc3)nc2n(C)c1=O | inactive |
| CC(C)=CCn1c(-c2ccc(OCCN(C)c3ccccn3)cc2)nc2c1c(=O)n(Cc1ccccc1C#N)c(=O)n2C | inactive |
| CN(CCOc1ccc(-c2nc3c(c(=O)[nH]c(=O)n3C)n2COC(=O)C(C)(C)C)cc1)c1ccccn1 | Active |
| CCn1c(-c2ccc(OCCN(C)c3ccccn3)cc2)nc2c1c(=O)n(Cc1ccc(F)cc1)c(=O)n2C | inactive |
| CN(CCOc1ccc(-c2nc3c(c(=O)n(Cc4ccccc4C#N)c(=O)n3C)n2CCO)cc1)c1ccccn1 | Active |
| CCCn1c(=O)c2c(nc(-c3ccc(OCCN(C)c4ccccn4)cc3)n2CCC)n(C)c1=O | inactive |
| CCn1c(=O)c2c(nc(-c3ccc(OCCN(C)c4ccccn4)cc3)n2CC)n(C)c1=O | inactive |
| C=CCn1c(=O)c2c(nc(-c3ccc(OCCN(C)c4ccccn4)cc3)n2CC=C)n(C)c1=O | inactive |
| CCCCCn1c(-c2ccc(OCCN(C)c3ccccn3)cc2)nc2c1c(=O)n(Cc1ccccc1C#N)c(=O)n2C | inactive |
| C=CCn1c(=O)c2[nH]c(-c3ccc(OCCN(C)c4ccccn4)cc3)nc2n(C)c1=O | inactive |
| CN(CCOc1ccc(-c2nc3c([nH]2)c(=O)n(CC(=O)O)c(=O)n3C)cc1)c1ccccn1 | inactive |

same assay, conditions: 3T3-L1, 24 h

| Structure (SMILES) | inhibition at 10 µM [%] |
| --- | --- |
| NC(=O)c1ncn([C@@H]2O[C@H](CO)[C@@H](O)[C@H]2O)c1N [ACADESINE] | 51 |
